From US20250230155A1 (Vanderbilt University, priority 2021, published 2025)
Blank lines part the entries; values can stand above or below the compound they belong to.

Biological target: T1, human mAChR M4 (Homo sapiens, UniProt P08173)
T1 construct: expressed in transfected cells
T1 sequence (P08173 1-479): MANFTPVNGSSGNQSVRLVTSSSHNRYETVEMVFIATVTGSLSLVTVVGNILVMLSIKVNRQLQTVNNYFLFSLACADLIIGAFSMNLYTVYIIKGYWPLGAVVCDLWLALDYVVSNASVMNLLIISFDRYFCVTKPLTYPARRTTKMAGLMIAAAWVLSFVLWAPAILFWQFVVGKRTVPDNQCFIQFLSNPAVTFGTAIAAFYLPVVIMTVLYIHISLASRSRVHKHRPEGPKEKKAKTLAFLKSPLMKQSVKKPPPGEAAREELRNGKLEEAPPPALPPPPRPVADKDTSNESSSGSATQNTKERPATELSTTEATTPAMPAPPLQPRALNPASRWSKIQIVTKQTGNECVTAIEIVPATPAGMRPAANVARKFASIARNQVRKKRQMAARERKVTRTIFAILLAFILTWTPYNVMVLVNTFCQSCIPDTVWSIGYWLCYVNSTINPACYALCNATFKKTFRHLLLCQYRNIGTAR
Assay: mAChR M4 cell-based functional assay (calcium mobilization, CHO-K1 hM4-Gqi5 cells)
Conditions: for EC50: positive allosteric modulator activity, increase in the EC20 acetylcholine response, CHO-K1 hM4-Gqi5 cells, read-out: Human M4 EC50
Experimental: Human and rat M4 cDNAs, along with the chimeric G protein Gqi5, were transfected into Chinese hamster ovary (CHO-K1) cells purchased from the American Type Culture Collection using Lipofectamine2000. hM4-Gqi5 cells were grown in Ham's F-12 medium containing 10% heat-inactivated fetal bovine serum (FBS), 20 mM HEPES, 50 μg/mL G418 sulfate, and 500 μg/mL Hygromycin B. rM4-Ggi5 cells were grown in DiVEM containing 10% heat-inactivated FBS, 20 mM THEPES, 400 μμg/mL G418 sulfate, and 500 μμg/mL Hygromycin B.
For high throughput measurement of agonist-evoked increases in intracellular calcium, CHO-K1 cells stably expressing muscarinic receptors were plated in growth medium lacking G418 and hygromycin at 15,000 cells/20 μL/well in Greiner 384-well black-walled, tissue culture (TC)-treated, clear-bottom plates (VWR). Cells were incubated overnight at 37° C. and 5% CO2. The next day, cells were washed using an ELX 405 (BioTek) with assay buffer; the final volume was then aspirated to 20 μL. Next, 20 μL of a […] of Fluo-4/acetoxymethyl ester (Invitrogen, Carlsbad, CA), prepared as a 2.3 mM stock in DMSO and mixed in a 1:1 ratio with 10% (w/v) Pluronic F-127 and diluted in assay buffer, was added to the wells and the cell plates were incubated for 50 min at 37° C. and 5% C02. Dye was removed by washing with the ELX 405 and the final volume was aspirated to 20 μL. Compound master plates were formatted in an 11 point concentration-response curve (CRC) format (1:3 dilutions) in 100% DMSO with a starting concentration of 10 mM using a BRAVO liquid handler (Agilent). Test compound CRCs were then transferred to daughter plates (240 nL) using the Echo acoustic plate reformatter (Labcyte, Sunnyvale, CA) and then diluted into assay buffer (40 μL) to a 2× stock using a Thermo Fisher Combi (Thermo Fisher Scientific, Waltham, MA).
Calcium flux was measured using the Functional Drug Screening System (FDSS) 6000 or 7000 (Hamamatsu Corporation, Tokyo, Japan) as an increase in the fluorescent static ratio. Compounds were applied to cells (20 μL, 2×) using the automated system of the FDSS at 2-4 seconds into the protocol and the data were collected at 1 Hz. At 144 seconds, 10 μL of an EC20 concentration of the muscarinic receptor agonist acetylcholine was added (5×), followed by the addition of 12 μL of an EC80 concentration of acetylcholine at the 230 second time point (5×). Agonist activity was analyzed as a concentration-dependent increase in calcium mobilization upon compound addition. Positive allosteric modulator activity was analyzed as a concentration-dependent increase in the EC20 acetylcholine response. Antagonist activity was analyzed as a concentration-dependent decrease in the EC80 acetylcholine response. Concentration-response curves were generated using a four-parameter logistical equation in XLFit curve fitting software (IDBS, Bridgewater, NJ) for Excel (Microsoft, Redmond, WA) or Prism (GraphPad Software, Inc., San Diego, CA).
Compounds were synthesized as described above. Activity (EC50 and Emax) was determined in the mAChR M4 cell-based functional assay as described above and the data are shown in Table 2. The compound number corresponds to the compound numbers used in Table 1.

[1] = % ACh maximum at 30 μM, human M4
[2] = CHO-K1, % ACh maximum at 30 μM, human M4

Emax [2]: 67%
EC50: 273 nM
SMILES: Cc1cc(-c2cnc3c(c2)CN(c2nnc(C#N)c(C)c2C)CC3)ccn1 [Example 12]

Emax at 30 µM [2]: 33%
EC50: 560 nM
SMILES: Cc1c(C#N)nnc(N2CCc3ncc(-c4ccc5ncn(C)c5c4)cc3C2)c1C [Example 17]

Emax at 30 µM [2]: 66%
EC50: 698 nM
SMILES: Cc1c(C#N)nnc(N2CCc3ncc(Nc4cccc(Cl)c4F)cc3C2)c1C [Example 36]

Emax at 30 µM [2]: 57%
EC50: 438 nM
SMILES: Cc1ccc(F)c(Nc2cnc3c(c2)CN(c2nnc(C#N)c(C)c2C)CC3)c1 [Example 37]

Emax at 30 µM [2]: 101%
EC50: 191 nM
SMILES: Cc1nn(C)c(C)c1-c1cnc2c(c1)CN(c1nnc(C#N)c(C)c1C)CC2 [Example 296, 4,5-dimethyl-6-(3-(1,3,5-trimethyl-1H-pyrazol-4-yl)-7,8-dihydro-1,6-naphthyridin-6(5H)-yl)pyridazine-3-carbonitrile]

Emax at 30 µM [2]: 83%
EC50: 267 nM
SMILES: Cc1noc(C)c1-c1cnc2c(c1)CN(c1nnc(C#N)c(C)c1C)CC2 [Example 297, 6-(3-(3,5-dimethylisoxazol-4-yl)-7,8-dihydro-1,6-naphthyridin-6(5H)-yl)-4,5-dimethylpyridazine-3-carbonitrile]

Emax at 30 µM [2]: 93%
EC50: 530 nM
SMILES: Cc1ccc(-c2cnc3c(c2)CN(c2nnc(C#N)c(C)c2C)CC3)cn1 [Example 298, 4,5-dimethyl-6-(3-(6-methylpyridin-3-yl)-7,8-dihydro-1,6-naphthyridin-6(5H)-yl)pyridazine-3-carbonitrile]

Emax at 30 µM [2]: 64%
EC50: 178 nM
SMILES: COc1ccc(-c2cnc3c(c2)CN(c2nnc(C#N)c(C)c2C)CC3)cn1 [Example 299, 6-(3-(6-methoxypyridin-3-yl)-7,8-dihydro-1,6-naphthyridin-6(5H)-yl)-4,5-dimethylpyridazine-3-carbonitrile]

Emax at 30 µM [2]: 57%
EC50: 265 nM
SMILES: Cc1c(C#N)nnc(N2CCc3ncc(-c4ccc(C5CC5)nc4)cc3C2)c1C [Example 301, 6-(3-(6-cyclopropylpyridin-3-yl)-7,8-dihydro-1,6-naphthyridin-6(5H)-yl)-4,5-dimethylpyridazine-3-carbonitrile]

Emax at 30 µM [2]: 48%
EC50: 1710 nM
SMILES: COc1ccc(Oc2cnc3c(c2)CN(c2nnc(C#N)c(C)c2C)CC3)cn1 [Example 302, 6-(3-((6-methoxypyridin-3-yl)oxy)-7,8-dihydro-1,6-naphthyridin-6(5H)-yl)-4,5-dimethylpyridazine-3-carbonitrile]

Emax at 30 µM [2]: 48%
EC50: 1600 nM
SMILES: Cc1c(C#N)nnc(N2CCc3ncc(C(F)(F)F)cc3C2)c1C [Example 303, 4,5-dimethyl-6-(3-(trifluoromethyl)-7,8-dihydro-1,6-naphthyridin-6(5H)-yl)pyridazine-3-carbonitrile]

Emax at 30 µM [2]: 94%
EC50: 405 nM
SMILES: Cc1c(C#N)nnc(N2CCc3ncc(C(F)F)cc3C2)c1C [Example 308, 6-(3-(difluoromethyl)-7,8-dihydro-1,6-naphthyridin-6(5H)-yl)-4,5-dimethylpyridazine-3-carbonitrile]

Second part, the compound before the results:

SMILES: Cc1cc(C#N)cnc1N1Cc2cc(N3CCOCC3)cnc2C(C)C1 (single isomer, unassigned) [Example 406, 5-methyl-6-(8-methyl-3-morpholino-7,8-dihydro-1,6-naphthyridin-6(5H)-yl)nicotinonitrile]
Emax [1]: 96%
EC50: 326 nM

SMILES: Cc1cc(C#N)nnc1N1Cc2cc(N3CCOCC3)cnc2C(C)C1 (single isomer, unassigned) [Example 407, 5-methyl-6-(8-methyl-3-morpholino-7,8-dihydro-1,6-naphthyridin-6(5H)-yl)pyridazine-3-carbonitrile]
Emax at 30 µM [2]: 91%
EC50: 611 nM

SMILES: Cc1cc(C#N)cnc1N1Cc2cc(N3CCOCC3)cnc2C(C)C1 (single isomer, unassigned) [Example 408, 5-methyl-6-(8-methyl-3-morpholino-7,8-dihydro-1,6-naphthyridin-6(5H)-yl)nicotinonitrile]
Emax [1]: 65%
EC50: 685 nM

SMILES: Cc1cc(C#N)cnc1N1CCc2ncc(N3CCCC3)cc2C1 [Example 1]
Emax at 30 µM [2]: 86%
EC50: 286 nM

SMILES: Cc1cc(C#N)cnc1N1CCc2ncc(Nc3ccc(F)cc3)cc2C1 [Example 2]
Emax at 30 µM [2]: 85%
EC50: 457 nM

SMILES: COc1ccc(CNc2cnc3c(c2)CN(c2ncc(C#N)cc2C)CC3)cc1F [Example 5]
Emax at 30 µM [2]: 63%
EC50: 2400 nM

SMILES: Cc1cc(C#N)cnc1N1CCc2ncc(Nc3ccccn3)cc2C1 [Example 6]
Emax at 30 µM [2]: 77%
EC50: 223 nM

SMILES: Cc1cc(C#N)cnc1N1CCc2ncc(Nc3ccccc3F)cc2C1 [Example 7]
Emax at 30 µM [2]: 94%
EC50: 90.5 nM

SMILES: Cc1cc(C#N)cnc1N1CCc2ncc(NCC3CCCO3)cc2C1 (stereo not drawn) [Example 9]
Emax at 30 µM [2]: 76%
EC50: 785 nM

SMILES: Cc1c(C#N)nnc(N2CCc3ncc(-c4ccn(CC5CC5)n4)cc3C2)c1C [Example 10]
Emax (CHO-K1): 56%
EC50: 240 nM

SMILES: Cc1c(C#N)nnc(N2CCc3ncc(Nc4c(F)cccc4Cl)cc3C2)c1C [Example 33]
Emax at 30 µM [2]: 66%
EC50: 197 nM

SMILES: Cc1c(C#N)nnc(N2CCc3ncc(Oc4ccc(F)cc4)cc3C2)c1C [Example 300, 6-(3-(4-fluorophenoxy)-7,8-dihydro-1,6-naphthyridin-6(5H)-yl)-4,5-dimethylpyridazine-3-carbonitrile]
Emax at 30 µM [2]: 71%
EC50: 246 nM

SMILES: Cc1cc(C#N)nnc1N1CCc2ncc(C(F)(F)F)cc2C1 [Example 304, 5-methyl-6-(3-(trifluoromethyl)-7,8-dihydro-1,6-naphthyridin-6(5H)-yl)pyridazine-3-carbonitrile]
Emax at 30 µM [2]: 93%
EC50: 676 nM

SMILES: Cc1cnc2c(c1)CN(c1nnc(C#N)cc1C)CC2 [Example 305, 5-methyl-6-(3-methyl-7,8-dihydro-1,6-naphthyridin-6(5H)-yl)pyridazine-3-carbonitrile]
Emax (CHO-K1): 105%
EC50: 537 nM

SMILES: Cc1cc(C#N)cnc1N1CCc2ncc(Nc3ccnn3C)cc2C1 [Example 306, 5-methyl-6-(3-((1-methyl-1H-pyrazol-5-yl)amino)-7,8-dihydro-1,6-naphthyridin-6(5H)-yl)nicotinonitrile]
Emax at 30 µM [2]: 109%
EC50: 23 nM

SMILES: Cc1cc(C#N)cnc1N1CCc2ncc(C(F)F)cc2C1 [Example 307, 6-(3-(difluoromethyl)-7,8-dihydro-1,6-naphthyridin-6(5H)-yl)-5-methylnicotinonitrile]
Emax (CHO-K1): 100%
EC50: 162 nM

SMILES: Cc1cc(C#N)nnc1N1CCc2ncc(C(F)F)cc2C1 [Example 309, 6-(3-(difluoromethyl)-7,8-dihydro-1,6-naphthyridin-6(5H)-yl)-5-methylpyridazine-3-carbonitrile]
Emax (CHO-K1): 96%
EC50: 770 nM

SMILES: Cc1cc(C#N)cnc1N1CCc2ncc(Oc3ccc(F)cc3F)cc2C1 [Example 310, 6-(3-(2,4-difluorophenoxy)-7,8-dihydro-1,6-naphthyridin-6(5H)-yl)-5-methylnicotinonitrile]
Emax at 30 µM [2]: 90%
EC50: 600 nM
